# Laboratory results published in patent US20250051347A1, “BIFUNCTIONAL CHIMERIC HETEROCYCLIC COMPOUND AND USE THEREOF AS ANDROGEN RECEPTOR DEGRADER” (Hinova Pharmaceuticals, Inc., priority 2021, published 2025).
# Biological target: T1, androgen receptor (AR) splicing variant AR-v7 (Homo sapiens, UniProt P10275)
# T1 construct: The degradation activity of compounds on AR-v7 in 22RV1 cells; host or cells: 22RV1 cells
# T1 sequence (P10275 1-644 isoform P10275-3): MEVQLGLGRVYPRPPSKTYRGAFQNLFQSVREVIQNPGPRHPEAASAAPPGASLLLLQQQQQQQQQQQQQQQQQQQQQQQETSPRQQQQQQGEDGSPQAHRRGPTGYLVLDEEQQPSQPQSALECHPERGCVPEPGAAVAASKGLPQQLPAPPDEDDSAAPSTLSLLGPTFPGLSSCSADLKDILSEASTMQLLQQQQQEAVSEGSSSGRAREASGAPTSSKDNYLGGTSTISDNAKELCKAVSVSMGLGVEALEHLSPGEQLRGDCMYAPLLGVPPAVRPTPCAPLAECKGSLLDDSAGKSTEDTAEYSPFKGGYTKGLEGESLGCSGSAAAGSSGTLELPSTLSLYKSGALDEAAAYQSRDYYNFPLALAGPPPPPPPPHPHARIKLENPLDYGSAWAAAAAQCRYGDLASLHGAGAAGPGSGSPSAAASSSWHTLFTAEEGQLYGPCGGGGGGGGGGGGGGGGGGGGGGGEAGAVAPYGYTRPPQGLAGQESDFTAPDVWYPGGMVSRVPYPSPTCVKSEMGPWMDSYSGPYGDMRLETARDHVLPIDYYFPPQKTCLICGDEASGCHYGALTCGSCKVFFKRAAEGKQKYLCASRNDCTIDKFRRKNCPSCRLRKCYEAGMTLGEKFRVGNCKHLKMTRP
# Assay: Degradation activity on androgen receptor splicing variant AR-v7 in 22RV1 cells (ELISA)
# Assay type: cell-based
# Settings: AR-v7 degradation in 22RV1 cells, 48 h, class symbols
# Procedure: The degradation activity of the compound of the present invention on the androgen receptor splicing variant AR-V7 was analyzed using enzyme-linked immunosorbent assay (ELISA).
# The plate was cultured in a 5% CO2 cell incubator at 37° C. for 2 days until the cells adhered to the wall. • 2) The drug was prepared into 10 mM stock solution with dimethylsulfoxide (DMSO). […] The plate was gently shaken and mixed. In addition, negative control wells (only containing culture medium) and positive control wells (only containing cells and DMSO) were set. • 3) After the cells were cultured in an incubator for 48 h, the medium was removed and the cells were rinsed once with ice cold PBS. Then, ice-cold 1× cell lysis buffer was added to each well of the cell culture plate. After the plate was incubated on ice for 15 min, the plate was tapped to mix. • 4) The supernatant of the cell lysate was transferred from the cell culture plate to a […] plate for ELISA. • 5) The newly prepared Capture antibody (green) was mixed with the newly prepared HRP-labeled antibody (red), and then the antibody mixture was added to the above 96-well ELISA plate. • 6) The ELISA plate was sealed with plastic film, and then incubated in a 25° C. incubator for 1 h. • 7) The washing buffer was added to each well, and then TMB substrate was added to each well of the ELISA plate. Subsequently, the plate was cultured in an incubator at 37° C. for 5 min. • 8) 100 μl of stop solution was added to each well of the ELISA plate, and the plate was gently tapped for several seconds. The absorbance was read at 450 nm within 30 min. The data were analyzed by the Dose-response equation in the software GraphPad Prism8, to obtain DC50 and Dmax values.
row,DC50,Structure (SMILES)
1,< 10 nM,CN1CC[C@@H](Oc2nccc(COc3ccc(C(C)(C)c4ccc(O[C@H]5C[C@@H](Nc6ccc7c(c6)C(=O)N(C6CCC(=O)NC6=O)C7=O)C5)cc4)cc3)n2)C1 (stereo partly drawn) [Example 243]
2,1000 to 5000 nM,CC(=O)c1nccc(COc2ccc(C(C)(C)c3ccc(N4CC5(CCN(c6ccc7c(c6)C(=O)N(C6CCC(=O)NC6=O)C7=O)CC5)C4)cc3)cc2)n1 (stereo not drawn) [Example 559]
3,11 to 100 nM,CN[C@@H]1CCCN(c2nccc(COc3ccc(C(C)(C)c4ccc(O[C@H]5C[C@@H](Nc6ccc7c(c6)C(=O)N(C6CCC(=O)NC6=O)C7=O)C5)cc4)cc3)n2)C1 (stereo partly drawn) [Example 401]
4,11 to 100 nM,"CC(C)(c1ccc(OCCCNc2ccc3c(c2)C(=O)N(C2CCC(=O)NC2=O)C3=O)cc1)c1ccc(OCc2nc(C(N)=O)cs2)cc1 (stereo not drawn) [Example 441, 2-((4-(2-(4-(3-((2-(2,6-dioxopiperidin-3-yl)-1,3-dioxoisoindolin-5-yl)amino)propoxy)phenyl)propan-2-yl)phenoxy)methyl) thiazol-4-carbonylamine]"
5,11 to 100 nM,CN1CCN(c2ncc3c(n2)CN(c2ccc(C(C)(C)c4ccc(O[C@H]5C[C@@H](Nc6ccc7c(c6)C(=O)N(C6CCC(=O)NC6=O)C7=O)C5)cc4)cc2)CC3)CC1 (stereo partly drawn) [Example 191]
6,11 to 100 nM,"Cc1nc(-c2cc(Oc3ccc(C(C)(C)c4ccc(O[C@H]5C[C@H](Nc6ccc7c(c6)C(=O)N(C6CCC(=O)NC6=O)C7=O)C5)cc4)cc3)ccn2)no1 (stereo partly drawn) [Example 167, 2-(2,6-dioxopyridin-3-yl)-5-(((1r,3r)-3-(4-(2-((4-(2-(5-methyl-1,2,4-oxadiazol-3-yl)pyridin-4-yl)oxy)phenyl)propan-2-yl)phenoxy)cyclobutyl)amino) isoindolin-1,3-dione]"
7,1000 to 5000 nM,CC(C)(c1ccc(OCCCCCCCCOCCCCNc2ccc3c(c2)C(=O)N(C2CCC(=O)NC2=O)C3=O)cc1)c1ccc(OCc2nc(C(N)=O)no2)cc1 (stereo not drawn) [Example 138]
8,11 to 100 nM,CC(C)(c1ccc(Oc2ccc(-n3cccn3)nc2)cc1)c1ccc(O[C@H]2C[C@@H](Nc3ccc4c(c3)C(=O)N(C3CCC(=O)NC3=O)C4=O)C2)cc1 (stereo partly drawn) [Example 542]
9,11 to 100 nM,CC(C)(c1ccc(OCc2nc(N3CC4(COC4)C3)ncc2F)cc1)c1ccc(O[C@H]2C[C@@H](Nc3ccc4c(c3)C(=O)N(C3CCC(=O)NC3=O)C4=O)C2)cc1 (stereo partly drawn) [Example 199]
10,101 to 1000 nM,"CC(C)(c1ccc(OCCCCCCCCOCCN2CCN(c3ccc4c(c3)C(=O)N(C3CCC(=O)NC3=O)C4=O)CC2)cc1)c1ccc(OCc2ccnc(NS(C)(=O)=O)n2)cc1 (stereo not drawn) [Example 1, N-(4-((4-(2-(4-((8-(2-(4-(2-(2,6-dioxopiperidin-3-yl)-1,3-dioxoisoindolin-5-yl)piperazin-1-yl)ethoxy)octyl)oxy)phenyl)propan-2-yl)phenoxy)methyl)pyrimidin-2-yl)methanesulfonamide]"
11,11 to 100 nM,"CN1CCN(c2ncc3c(n2)CN(c2ccc(C(C)(C)c4ccc(O[C@H]5C[C@H](Nc6ccc7c(c6)C(=O)N(C6CCC(=O)NC6=O)C7=O)C5)cc4)cc2)CC3)CC1 (stereo partly drawn) [Example 192, 2-(2,6-dioxopiperidin-3-yl)-5-((1r,3r)-3-(4-(2-(2-(4-methylpiperazin-1-yl)-5,8-dihydropyrido[3,4-d]pyrimidin-7(6H)-phenyl)propan-2-ylphenoxy)cyclobutyl)amino)isoindolin-1,3-dione]"
12,11 to 100 nM,Cc1cnc(N2CC3(COC3)C2)nc1COc1ccc(C(C)(C)c2ccc(O[C@H]3C[C@@H](Nc4ccc5c(c4)C(=O)N(C4CCC(=O)NC4=O)C5=O)C3)cc2)cc1 (stereo partly drawn) [Example 203]
13,11 to 100 nM,CN(C)[C@H]1CCN(c2nccc(COc3ccc(C(C)(C)c4ccc(O[C@H]5C[C@@H](Nc6ccc7c(c6)C(=O)N(C6CCC(=O)NC6=O)C7=O)C5)cc4)cc3)n2)C1 (stereo partly drawn) [Example 238]
14,1000 to 5000 nM,"CC(=O)c1nccc(COc2ccc(C(C)(C)c3ccc(OCCCCCCCCCNc4cccc5c4C(=O)N(C4CCC(=O)NC4=O)C5=O)cc3)cc2)n1 (stereo not drawn) [Example 386, 4-((9-(4-(2-(4-((2-acetylpyrimidin-4-yl)methoxy)phenyl)propan-2-yl)phenoxy)nonyl)amino)-2-(2,6-dioxopyridin-3-yl)isoindol-1,3-dione]"
15,11 to 100 nM,CC(C)(c1ccc(Oc2ccc(N3CC4(COC4)C3)nn2)cc1)c1ccc(O[C@H]2C[C@@H](Nc3ccc4c(c3)C(=O)N(C3CCC(=O)NC3=O)C4=O)C2)cc1 (stereo partly drawn) [Example 317]
16,11 to 100 nM,"CC(C)(c1ccc(Oc2ccc(-n3ccnn3)nc2)cc1)c1ccc(O[C@H]2C[C@@H](Nc3ccc4c(c3)C(=O)N(C3CCC(=O)NC3=O)C4=O)C2)cc1 (stereo partly drawn) [Example 541, 5-((1s,3s)-3-(4-(2-(4-((6-(1H-1,2,3-triazol-1-yl)pyridin-3-yl)oxy)phenyl)propan-2-ylphenoxy)cyclobutyl)amino)-2-(2,6-dioxopiperidin-3-yl)isoindolin-1,3-dione]"
17,11 to 100 nM,Cc1nc(-c2ncc(Oc3ccc(C(C)(C)c4ccc(O[C@H]5C[C@H](Nc6cc7c(cc6F)C(=O)N(C6CCC(=O)NC6=O)C7=O)C5)cc4)cc3)cn2)no1 (stereo partly drawn) [Example 102]
18,11 to 100 nM,CC(c1ccc(Oc2cnc(-n3ccnn3)nc2)cc1)c1ccc(O[C@H]2C[C@H](Nc3ccc4c(c3)C(=O)N(C3CCC(=O)NC3=O)C4=O)C2)cc1 (stereo partly drawn) [Example 519]

row,Structure (SMILES),DC50
1,"Cc1nc(-c2ccc(Oc3ccc(C(C)(C)c4ccc(OC5CC(Nc6ccc7c(c6)C(=O)N(C6CCC(=O)NC6=O)C7=O)C5)cc4)cc3)cn2)no1 (stereo not drawn) [Example 543, 2-(2,6-dioxopiperidin-3-yl)-5-(1s,3s)-3-(4-(2-(4-(6-(5-methyl-1,2,4-oxadiazol-3-yl)pyridin-3-yl)oxy)phenyl)propan-2-yl)phenoxy)cyclobutyl)amino) isoindolin-1,3-dione]",11 to 100 nM

# Same assay, conditions: AR-v7 degradation in 22RV1 cells, 48 h, numeric values
row,DC50,Structure (SMILES)
1,> 10000 nM,CC(C)(c1ccc(OCCCCCCCOCCCOCCCNc2ccc3c(c2)C(=O)N(C2CCC(=O)NC2=O)C3=O)cc1)c1ccc(OCc2ccnc(NS(C)(=O)=O)n2)cc1 (stereo not drawn) [Example 24]
2,> 10000 nM,CC(=O)c1nccc(COc2ccc(C(C)(C)c3ccc(OC4CCCN(c5ccc6c(c5)C(=O)N(C5CCC(=O)NC5=O)C6=O)C4)cc3)cc2)n1 (stereo not drawn) [Example 107]
3,5200 nM,"CC(C)(c1ccc(OCc2ccnc(NS(C)(=O)=O)n2)cc1)c1ccc(OC[C@H]2CC[C@H](COCCCCCNc3ccc4c(c3)C(=O)N(C3CCC(=O)NC3=O)C4=O)CC2)cc1 (stereo partly drawn) [Example 56, N-(4-((4-(2-(4-(((1r,4r)-4-(((5-((2-(2,6-dioxopiperidin-3-yl)-1,3-dioxoisoindolin-5-yl)amino)pentyl)oxy)methyl)cyclohexyl)methoxy)phenyl)isopropan-2-yl)phenoxy)methyl)pyrimidin-2-yl)methanesulfonamide]"
4,> 10000 nM,"CC(=O)c1nccc(COc2ccc(C(C)(C)c3ccc(OCC4CCCN(c5cccc6c5C(=O)N(C5CCC(=O)NC5=O)C6=O)C4)cc3)cc2)n1 (stereo not drawn) [Example 303, 4-(3-((4-(2-(4-((2-acetylpyrimidin-4-yl)methoxy)phenyl)propan-2-yl)phenoxy)methyl)piperidin-1-yl)-2-(2,6-dioxopiperidin-3-yl)isoindolin-1,3-dione]"
5,> 10000 nM,CC(C)(c1ccc(OCc2ccnc(NS(C)(=O)=O)n2)cc1)c1ccc(OC2CCN(CCCCCOCCCCNc3ccc4c(c3)C(=O)N(C3CCC(=O)NC3=O)C4=O)CC2)cc1 (stereo not drawn) [Example 15]
